Paper PMC3412733, “Identification and recombinant expression of anandamide hydrolyzing enzyme from Dictyostelium discoideum” (BMC Microbiology, 2012)

Target: T1, MBP-FAAH (Dictyostelium FAAH) (Dictyostelium discoideum, UniProt Q8MMR8)
T1 construct: gene DDB_G0275967; full length (637 residues) with N-terminal MBP and 6xHis tags kept, expressed in E. coli BL21(DE3) (pCWMalET), amylose resin purified
T1 sequence (Q8MMR8 1-637): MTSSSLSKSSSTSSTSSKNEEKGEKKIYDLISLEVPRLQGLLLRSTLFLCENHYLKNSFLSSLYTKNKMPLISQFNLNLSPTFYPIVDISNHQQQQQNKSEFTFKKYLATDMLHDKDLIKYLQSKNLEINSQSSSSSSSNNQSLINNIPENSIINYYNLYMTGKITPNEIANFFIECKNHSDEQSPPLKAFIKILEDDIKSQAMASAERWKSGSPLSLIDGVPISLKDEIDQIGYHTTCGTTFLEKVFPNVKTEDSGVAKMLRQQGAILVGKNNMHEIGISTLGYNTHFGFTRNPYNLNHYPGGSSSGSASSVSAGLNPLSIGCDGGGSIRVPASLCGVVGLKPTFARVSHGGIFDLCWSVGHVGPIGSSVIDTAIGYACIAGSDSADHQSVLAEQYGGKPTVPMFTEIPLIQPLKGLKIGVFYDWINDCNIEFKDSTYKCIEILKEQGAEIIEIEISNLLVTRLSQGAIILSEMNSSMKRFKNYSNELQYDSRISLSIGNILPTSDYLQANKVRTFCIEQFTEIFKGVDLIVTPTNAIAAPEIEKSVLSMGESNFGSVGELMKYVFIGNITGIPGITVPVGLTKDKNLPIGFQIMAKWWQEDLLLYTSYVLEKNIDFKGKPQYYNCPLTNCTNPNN
Assay: CE-ES-MS of product arachidonic acid
Assay type: biochemical
Conditions: pH 9.0, 50 mM NaCl, 10% DMSO, 37°C, 30 min

CCCCC/C=C\C/C=C\C/C=C\C/C=C\CCCC(=O)NCCO [anandamide]
CE-ES-MS of product arachidonic acid: hydrolyzed anandamide to free arachidonic acid and ethanolamine as determined by CE-ES-MS
